# Assay results published in BindingDB's records for doi:10.7270/Q2GH9GBT (Nmmlsc, 2008).
# Molecular target: T1, Bcl-2-like protein 10 [11-204] (Homo sapiens, UniProt Q9HD36)
# T1 construct: 11-204
# T1 sequence (Q9HD36 whole entry): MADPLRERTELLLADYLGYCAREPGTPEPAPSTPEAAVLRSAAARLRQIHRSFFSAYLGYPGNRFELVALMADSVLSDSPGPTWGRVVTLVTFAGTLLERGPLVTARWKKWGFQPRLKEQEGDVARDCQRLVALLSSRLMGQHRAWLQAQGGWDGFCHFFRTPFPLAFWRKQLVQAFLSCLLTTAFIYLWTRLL
# Experiment: modulators of Bcl-B/Bim peptide interaction – biochemical, multiplexed, bead-based flow cytometry, human, dose response (AID 1327)
# Conditions: not given
row,Compound,EC50
1,Cc1ccc(C=NNC(=O)CSc2nnc(-c3ccc(Cl)cc3)n2-c2ccccc2)o1 [SMR000218122],9.23 µM
2,Clc1nc2ccccc2cc1CN=Nc1nc2ccccc2[nH]1 [SMR000221568],35.7 µM

# Same assay, conditions: inactive by the depositor's call
row,Compound,EC50
1,COc1ccc(OC)c(-n2c(=O)c3ccccc3c3ccccc3c2=O)c1 [SMR000236434],16.4 µM
2,Nc1c(C(=O)NCC2CCCO2)sc2nc3c(c(-c4ccco4)c12)CC/C3=C\c1ccco1 (centres undefined) [SMR000259502],13.7 µM
3,Nc1c(C(=O)NC2CC2)sc2nc3c(c(-c4ccco4)c12)CC/C3=C/c1ccco1 [SMR000259554],10.4 µM
4,Cc1nnc2ccc(-c3cccc(NC(=O)c4ccco4)c3)nn12 [SMR000324305],3.53 µM
5,O=C(Nc1cccc(Cl)c1)Nc1ccnc(-c2cccnc2)n1 [SMR000337179],1.11 µM
6,CCOC(=O)c1nc(Nc2ccc(C(=O)OC)cc2)c2ccccc2n1 [ethyl 4-(4-methoxycarbonylanilino)quinazoline-2-carboxylate],11.2 µM
7,"CN(N=Cc1ccncc1)C1=NS(=O)(=O)c2ccccc21 [isonicotinaldehyde (1,1-dioxido-1,2-benzisothiazol-3-yl)(methyl)hydrazone]",1.82 µM
